Test results reported in the NIST ThermoML archive (doi:10.1016/j.fluid.2011.06.011).

Test: refractive index (Na D-line) (dimensionless); xn = mol fraction of the nth substance listed
Settings: 101 kPa, Liquid, Standard Abbe refractometry

C=CC(C)(O)CCC=C(C)C (stereo not drawn) [3,7-dimethyl-1,6-octadien-3-ol] + CCO
refractive index
Settings | 283.15 K | 298.15 K | 313.15 K | 328.15 K
x1 = 0.0471 | – | – | – | 1.3611
x1 = 0.0493 | – | – | 1.3678 | –
x1 = 0.0506 | 1.38013 | 1.37416 | – | –
x1 = 0.1008 | 1.39241 | 1.38626 | 1.37996 | 1.37358
x1 = 0.1969 | 1.41091 | 1.40451 | 1.39788 | 1.39102
x1 = 0.2884 | 1.42392 | – | – | –
x1 = 0.2895 | – | 1.4175 | 1.41061 | 1.4036
x1 = 0.388 | 1.43469 | 1.42801 | – | –
x1 = 0.3957 | – | – | 1.42171 | 1.41452
x1 = 0.4803 | 1.44248 | – | – | –
x1 = 0.4834 | – | 1.4359 | 1.42883 | 1.42158
x1 = 0.56 | 1.44799 | – | – | –
x1 = 0.593 | – | 1.44306 | 1.43594 | 1.42859
x1 = 0.6838 | 1.45474 | 1.44779 | 1.44061 | 1.43327
x1 = 0.7832 | 1.45921 | – | – | –
x1 = 0.8438 | – | 1.45451 | 1.44732 | 1.43989
x1 = 0.8941 | 1.46319 | 1.45612 | 1.4489 | 1.4415
x1 = 0.9286 | 1.46443 | – | 1.45004 | 1.44266
x1 = 0.9337 | – | 1.45748 | – | –
x1 = 1 | 1.4666 | 1.45946 | 1.45215 | 1.44473
